Results: patent US9751840B2, “R-7-(3-aminomethyl-4-methoxyimino-3-methyl-pyrrolidin-1-yl)-1-cyclopropyl-6-fluoro-4-oxo-acid and L-aspartic acid salt, process for the preparation thereof and pharmaceutical composition comprising the same for antimicrobial” (ARIBIO CO. LTD., priority 2009, dated 2017)
Converted amounts (≈) assume the structure as drawn.

Tests used:
[1] = Solubility test; type: physicochemical; settings: room temperature, water
[2] = Stability test in distilled water; type: physicochemical; settings: 30 mg in 100 ml distilled water
[3] = test system: Male ICR mice; test: Single dose toxicity in mice (LD50); settings: single intraperitoneal dose, observed 14 days
Procedure: The following experiment was performed in order to observe the degree of toxicity of the L-aspartate according to the present invention.
Male ICR mice were used as experimental animals. 5 male ICR mice were divided into 6 dose groups, respectively and fasted except for water for 24 hours.

CON=C1CN(c2nc3c(cc2F)c(=O)c(C(=O)O)cn3C2CC2)C[C@@]1(C)CN.Cc1ccc(S(=O)(=O)O)cc1
solubility [1]: 5.78 mg/mL
Content (%) 60? (after 3 weeks) [2]: 87.3%
Content (%) Initial [2]: 98.6%
Content (%) Room temperature (after 3 weeks) [2]: 98.1%

CON=C1CN(c2nc3c(cc2F)c(=O)c(C(=O)O)cn3C2CC2)C[C@@]1(C)CN.O=CO [Formate (Comparative Example 5)]
solubility [1]: 27.5 mg/mL
Content (%) 60? (after 3 weeks) [2]: 75.1%
Content (%) Initial [2]: 89.7%
Content (%) Room temperature (after 3 weeks) [2]: 89.7%

CON=C1CN(c2nc3c(cc2F)c(=O)c(C(=O)O)cn3C2CC2)C[C@@]1(C)CN [Free form (Comparative Example 2)]
solubility [1]: 2.79 mg/mL (≈ 6.92 mM)
Content (%) 60? (after 3 weeks) [2]: 34.6%
Content (%) Initial [2]: 97.3%
Content (%) Room temperature (after 3 weeks) [2]: 96.8%

CON=C1CN(c2nc3c(cc2F)c(=O)c(C(=O)O)cn3C2CC2)C[C@@]1(C)CN.CS(=O)(=O)O [Methanesulfonate (Comparative Example 4)]
solubility [1]: 99.1 mg/mL
Content (%) 60? (after 3 weeks) [2]: 89.6%
Content (%) Initial [2]: 96.4%
Content (%) Room temperature (after 3 weeks) [2]: 96.8%

CON=C1CN(c2nc3c(cc2F)c(=O)c(C(=O)O)cn3C2CC2)C[C@@]1(C)CN.O=P(O)(O)O [Phosphate (Comparative Example 6)]
solubility [1]: 57.8 mg/mL
Content (%) 60? (after 3 weeks) [2]: 91.2%
Content (%) Initial [2]: 98.1%
Content (%) Room temperature (after 3 weeks) [2]: 97.9%
Lethal dose 50 [3]: 176 mg/kg
